# Data reported in patent publication US6737383B1, “Herbicidal oxadiazolidines” (priority 1999, dated 2004).
# Assays:
# rape = experiment: Test B pre/postemergence rape; assay type: in vivo, Brassica napus
# Summary of the method: (§1)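 Response is a visual 0-to-10 score relative to untreated plants, where 0 means no effect and 10 means complete control, taken twelve to sixteen days after application. Treatments went onto soil at planting and onto foliage of 1- to 4-leaf plants, using a surfactant-containing non-phytotoxic solvent.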
# duck salad = experiment: Test B flood test duck salad; assay type: in vivo, Heteranthera limosa
# Summary of the method: (§2)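 Flood test on plants grown to the 2-leaf stage; treated plants kept in greenhouse twelve to sixteen days, then visually rated against controls on a 0 (no effect) to 10 (complete control) scale.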
# wild oat = experiment: Test B pre/postemergence wild oat; assay type: in vivo, Avena fatua
# Summary of the method: as §1
# soybean = experiment: Test B pre/postemergence soybean; assay type: in vivo, Glycine max
# Summary of the method: as §1
# cocklebur = experiment: Test B pre/postemergence cocklebur; assay type: in vivo, Xanthium strumarium
# Summary of the method: as §1
# corn = experiment: Test B pre/postemergence corn; assay type: in vivo, Zea mays
# Summary of the method: as §1
# smallflower flatsedge = experiment: Test B flood test smallflower flatsedge; assay type: in vivo, Cyperus difformis
# Summary of the method: as §2
# purple nutsedge = experiment: Test B pre/postemergence purple nutsedge; assay type: in vivo, Cyperus rotundus
# Summary of the method: as §1
# giant foxtail = experiment: Test B pre/postemergence giant foxtail; assay type: in vivo, Setaria faberii
# Summary of the method: as §1
# rice = experiment: Test B flood test rice; assay type: in vivo, Oryza sativa
# Summary of the method: as §2
# pigweed = experiment: Test B pre/postemergence pigweed; assay type: in vivo, Amaranthus retroflexus
# Summary of the method: as §1
# crabgrass = experiment: Test B pre/postemergence crabgrass; assay type: in vivo, Digitaria sanguinalis
# Summary of the method: as §1
# bamyardgrass = experiment: Test B flood test barnyardgrass; assay type: in vivo, Echinochloa crus-galli
# Summary of the method: as §2
# surinam grass = experiment: Test B pre/postemergence surinam grass; assay type: in vivo, Brachiaria decumbens
# Summary of the method: as §1
# morningglory = experiment: Test B pre/postemergence morningglory; assay type: in vivo, Ipomoea hederacea
# Summary of the method: as §1
# sugar beet = experiment: Test B pre/postemergence sugar beet; assay type: in vivo, Beta vulgaris
# Summary of the method: as §1
# [1] = Preemergence, Rate 62 g/ha, scale of 0 to 10 where 0 is no effect and 10 is complete control
# [2] = Preemergence, Rate 250 g/ha, scale of 0 to 10 where 0 is no effect and 10 is complete control
# [3] = Preemergence, Rate 500 g/ha, scale of 0 to 10 where 0 is no effect and 10 is complete control
# [4] = Rate 62 g/ha, Postemergence, scale of 0 to 10 where 0 is no effect and 10 is complete control
# [5] = Rate 125 g/ha, Postemergence, scale 0 to 10
# [6] = Rate 125 g/ha, Preemergence, scale of 0 to 10 where 0 is no effect and 10 is complete control
# [7] = Rate 500 g/ha, Postemergence, scale 0 to 10, 0 no effect, 10 complete control
# [8] = Rate 62 g/ha, headed Pre-emergence (flood test species), scale 0 to 10 (0 no effect, 10 complete control)
# [9] = Rate 125 g/ha, Pre-emergence, flood test species, scale 0 to 10 where 0 is no effect and 10 is complete control
# [10] = Rate 250 g/ha, Pre-emergence, flood-test species, scale 0 to 10, 0 is no effect, 10 is complete control
# [11] = Rate 500 g/ha, Pre-emergence, flood test species, scale 0 to 10 (0 no effect, 10 complete control)
smiles,measurement,setting,value
COc1cc(C)cc(C)c1-n1c(=O)on(C(=O)N(c2ccc(F)cc2)C(C)C)c1=O [Compound 222],Rape plant response rating,rape; [1],0
same,Rape plant response rating,rape; [2],0
same,"Plant response rating, Rape",rape; [3],0
same,Rape plant response rating,rape; [4],0
same,Rape plant response rating,rape; [5],0
same,Rape plant response rating,rape; [6],0
same,"Plant response rating (0 to 10; 0 is no effect, 10 is complete control), Rape","rape; Rate 250 g/ha, Postemergence",0
same,Rape plant response rating,rape; [7],0
same,Ducksalad plant response rating,duck salad; [8],0
same,Ducksalad plant response rating,duck salad; [9],0
same,Ducksalad plant response rating,duck salad; [10],0
same,Ducksalad plant response rating,duck salad; [11],0
same,Wild oats plant response rating,wild oat; [1],0
same,Wild oats plant response rating,wild oat; [2],0
same,"Plant response rating, Wild oats",wild oat; [3],1
same,Wild oats plant response rating,wild oat; [4],0
same,Wild oats plant response rating,wild oat; [5],0
same,Wild oats plant response rating,wild oat; [6],0
same,"Plant response rating (0 to 10; 0 is no effect, 10 is complete control), Wild oats","wild oat; Rate 250 g/ha, Postemergence",0
same,Wild oats plant response rating,wild oat; [7],0
same,Soybean plant response rating,soybean; [1],0
same,Soybean plant response rating,soybean; [2],0
same,"Plant response rating, Soybean",soybean; [3],0
same,Soybean plant response rating,soybean; [4],2
same,Soybean plant response rating,soybean; [5],3
same,Soybean plant response rating,soybean; [6],0
same,"Plant response rating (0 to 10; 0 is no effect, 10 is complete control), Soybean","soybean; Rate 250 g/ha, Postemergence",3
same,Soybean plant response rating,soybean; [7],2
same,Cocklebur plant response rating,cocklebur; [1],0
same,Cocklebur plant response rating,cocklebur; [2],0
same,Cocklebur plant response rating,cocklebur; [4],0
same,Cocklebur plant response rating,cocklebur; [5],0
same,Cocklebur plant response rating,cocklebur; [6],0
same,"Plant response rating (0 to 10; 0 is no effect, 10 is complete control), Cocklebur","cocklebur; Rate 250 g/ha, Postemergence",0
same,Cocklebur plant response rating,cocklebur; [7],0
same,Corn plant response rating,corn; [1],0
same,Corn plant response rating,corn; [2],0
same,"Plant response rating, Corn",corn; [3],0
same,Corn plant response rating,corn; [4],0
same,Corn plant response rating,corn; [5],0
same,Corn plant response rating,corn; [6],0
same,"Plant response rating (0 to 10; 0 is no effect, 10 is complete control), Corn","corn; Rate 250 g/ha, Postemergence",0
same,Corn plant response rating,corn; [7],0
same,S. Flatsedge plant response rating,smallflower flatsedge; [8],0
same,S. Flatsedge plant response rating,smallflower flatsedge; [9],0
same,S. Flatsedge plant response rating,smallflower flatsedge; [10],0
same,S. Flatsedge plant response rating,smallflower flatsedge; [11],0
same,Nutsedge plant response rating,purple nutsedge; [2],0
same,Nutsedge plant response rating,purple nutsedge; [4],0
same,Nutsedge plant response rating,purple nutsedge; [5],0
same,Nutsedge plant response rating,purple nutsedge; [6],0
same,"Plant response rating (0 to 10; 0 is no effect, 10 is complete control), Nutsedge","purple nutsedge; Rate 250 g/ha, Postemergence",0
same,Giant foxtail plant response rating,giant foxtail; [1],0
same,Giant foxtail plant response rating,giant foxtail; [2],7
same,"Plant response rating, Giant foxtail",giant foxtail; [3],9
same,Giant foxtail plant response rating,giant foxtail; [4],0
same,Giant foxtail plant response rating,giant foxtail; [5],0
same,Giant foxtail plant response rating,giant foxtail; [6],5
same,"Plant response rating (0 to 10; 0 is no effect, 10 is complete control), Giant foxtail","giant foxtail; Rate 250 g/ha, Postemergence",0
same,Giant foxtail plant response rating,giant foxtail; [7],1
same,Rice plant response rating,rice; [8],0
same,Rice plant response rating,rice; [9],0
same,Rice plant response rating,rice; [10],0
same,Rice plant response rating,rice; [11],0
same,Redroot pigweed plant response rating,pigweed; [1],0
same,Redroot pigweed plant response rating,pigweed; [2],0
same,"Plant response rating, Redroot pigweed",pigweed; [3],4
same,Redroot pigweed plant response rating,pigweed; [4],0
same,Redroot pigweed plant response rating,pigweed; [5],0
same,Redroot pigweed plant response rating,pigweed; [6],0
same,"Plant response rating (0 to 10; 0 is no effect, 10 is complete control), Redroot pigweed","pigweed; Rate 250 g/ha, Postemergence",0
same,Redroot pigweed plant response rating,pigweed; [7],0
same,Crabgrass plant response rating,crabgrass; [1],0
same,Crabgrass plant response rating,crabgrass; [2],8
same,"Plant response rating, Crabgrass",crabgrass; [3],9
same,Crabgrass plant response rating,crabgrass; [4],0
same,Crabgrass plant response rating,crabgrass; [5],0
same,Crabgrass plant response rating,crabgrass; [6],6
same,"Plant response rating (0 to 10; 0 is no effect, 10 is complete control), Crabgrass","crabgrass; Rate 250 g/ha, Postemergence",0
same,Crabgrass plant response rating,crabgrass; [7],2
same,Barnyardgrass plant response rating,bamyardgrass; [8],0
same,Barnyardgrass plant response rating,bamyardgrass; [9],0
same,Barnyardgrass plant response rating,bamyardgrass; [10],0
same,Barnyardgrass plant response rating,bamyardgrass; [11],0
same,B. signalgrass plant response rating,surinam grass; [1],0
same,B. signalgrass plant response rating,"surinam grass; Preemergence, Rate 250 g/ha, scale 0 to 10, 0 is no effect, 10 is complete control",0
same,"Plant response rating, B. signalgrass",surinam grass; [3],0
same,B. signalgrass plant response rating,surinam grass; [4],0
same,B. signalgrass plant response rating,"surinam grass; Rate 125 g/ha, Postemergence, scale 0 (no effect) to 10 (complete control)",0
same,B. signalgrass plant response rating,surinam grass; [6],0
same,"Plant response rating (0 to 10; 0 is no effect, 10 is complete control), B. signalgrass","surinam grass; Rate 250 g/ha, Postemergence",0
same,B. signalgrass plant response rating,surinam grass; [7],1
same,Morningglory plant response rating,morningglory; [1],0
same,Morningglory plant response rating,morningglory; [2],0
same,"Plant response rating, Morningglory",morningglory; [3],0
same,Morningglory plant response rating,morningglory; [4],1
same,Morningglory plant response rating,morningglory; [5],1
same,Morningglory plant response rating,morningglory; [6],0
same,"Plant response rating (0 to 10; 0 is no effect, 10 is complete control), Morningglory","morningglory; Rate 250 g/ha, Postemergence",3
same,Morningglory plant response rating,morningglory; [7],3
same,Sugarbeets plant response rating,sugar beet; [1],0
same,Sugarbeets plant response rating,sugar beet; [2],0
same,"Plant response rating, Sugarbeets",sugar beet; [3],0
same,Sugarbeets plant response rating,sugar beet; [4],0
same,Sugarbeets plant response rating,sugar beet; [5],0
same,Sugarbeets plant response rating,sugar beet; [6],0
same,"Plant response rating (0 to 10; 0 is no effect, 10 is complete control), Sugarbeets","sugar beet; Rate 250 g/ha, Postemergence",0
same,Sugarbeets plant response rating,sugar beet; [7],0
